Literature values in US11304990B2, “Use of known compounds—intracellular infections” (ISR IMMUNE SYSTEM REGULATION HOLDING AB (PUBL), priority 2017, dated 2022).

Legend:
[1] = test system: pituitary type I GnRH receptors
CD4 T-lymphocyte = conditions: diabetes-prone BB rats exhibiting an AIDS-like lymphocyte profile

pyroGlu-His-Trp-Ser-Tyr-Gly-Leu-Arg-Pro-Gly-NH2 [GnRH I, decapeptide gonadotropin releasing hormone]
fold higher affinity, pituitary vs breast cancer cell receptors ([1]; central pituitary binding compared with breast cancer cells): 1000 fold
Kd ([1]; central pituitary binding, read-out: binding affinity (Kd)): 4.8 nM
CD4 T-lymphocyte numbers (CD4 T-lymphocyte): increased
